In patent publication US11524966B1 (Valo Early Discovery, Inc., priority 2017, dated 2022):

These molecules were tested against T1, USP28 (His-tagged USP28-FL-mammalian) (Homo sapiens, UniProt Q96RU2) (assay: Ubiquitin-Rhodamine 110 Assay for USP28 Activity, Example A-1(a)). Conditions: Ubiquitin-Rhodamine 110 assay, Example A-1(a); read-out: USP28 A-1(a) IC50 range.
T1 construct: Expression of USP28 (1-1077)-TEV-6*His (pTT5 vector); made in house; host or cells: Expi293f cells (pTT5 vector)
T1 sequence (Q96RU2 1-1077): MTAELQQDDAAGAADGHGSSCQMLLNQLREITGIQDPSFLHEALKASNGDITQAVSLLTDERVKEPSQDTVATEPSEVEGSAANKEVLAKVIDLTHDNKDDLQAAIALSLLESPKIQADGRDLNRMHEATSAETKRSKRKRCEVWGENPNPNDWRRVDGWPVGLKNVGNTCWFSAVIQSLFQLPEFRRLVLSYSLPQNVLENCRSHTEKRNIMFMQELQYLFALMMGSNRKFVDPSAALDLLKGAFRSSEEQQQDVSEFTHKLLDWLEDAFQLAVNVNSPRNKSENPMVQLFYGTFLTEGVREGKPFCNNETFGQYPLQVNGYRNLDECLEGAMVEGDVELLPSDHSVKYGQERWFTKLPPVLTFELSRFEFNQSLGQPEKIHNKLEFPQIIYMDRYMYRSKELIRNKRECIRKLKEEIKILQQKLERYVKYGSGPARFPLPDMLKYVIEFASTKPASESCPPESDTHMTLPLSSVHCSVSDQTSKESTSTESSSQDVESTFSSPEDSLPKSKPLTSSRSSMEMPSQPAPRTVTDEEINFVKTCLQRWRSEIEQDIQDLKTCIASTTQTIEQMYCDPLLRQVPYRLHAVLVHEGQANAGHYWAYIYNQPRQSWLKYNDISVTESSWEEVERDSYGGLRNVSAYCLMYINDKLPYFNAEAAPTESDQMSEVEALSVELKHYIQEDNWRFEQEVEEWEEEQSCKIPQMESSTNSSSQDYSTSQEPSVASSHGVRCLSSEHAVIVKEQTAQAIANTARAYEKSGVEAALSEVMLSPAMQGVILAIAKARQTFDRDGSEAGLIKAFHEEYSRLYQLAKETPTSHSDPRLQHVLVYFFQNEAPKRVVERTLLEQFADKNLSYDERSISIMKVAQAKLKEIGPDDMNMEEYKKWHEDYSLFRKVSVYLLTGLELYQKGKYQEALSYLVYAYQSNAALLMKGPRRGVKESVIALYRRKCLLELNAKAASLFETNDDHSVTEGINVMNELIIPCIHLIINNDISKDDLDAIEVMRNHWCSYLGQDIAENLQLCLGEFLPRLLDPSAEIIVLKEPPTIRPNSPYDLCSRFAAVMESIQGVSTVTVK
Type: biochemical
Summary of the method: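 Full-length His-tagged human USP28 (1-1077, Expi293f-expressed), […], with 25 nM Ub-Rh110 (<<Km) in pH 8.0 Tris buffer with BME, BGG, Triton X-100. 10-point dilutions (25 μM-1.3 nM), 45 min at room temperature, citric acid stop, fluorescence 485/535 nm; IC50 by 4-parameter fit.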

Row | Structure (SMILES) | IC50 [nM]
1 | CCn1ccc2cc(C(=O)N[C@H]3CCc4nc(N5C[C@H](N)C6(COC6)C5)ccc4C3)cnc21 [Example 403, N-[(6S)-2-[(8R)-8-amino-2-oxa-6-azaspiro[3.4]octan-6-yl]-5,6,7,8-tetrahydroquinolin-6-yl]-1-ethyl-1H-pyrrolo[2,3-b]pyridine-5-carboxamide] | > 2000
2 | CCn1ccc2cc(C(=O)N[C@H]3CCc4nc(N5C[C@@H](N)C6(COC6)C5)ccc4C3)cnc21 [Example 404, N-[(6S)-2-[(8S)-8-amino-2-oxa-6-azaspiro[3.4]octan-6-yl]-5,6,7,8-tetrahydroquinolin-6-yl]-1-ethyl-1H-pyrrolo[2,3-b]pyridine-5-carboxamide] | 200 to 2000
3 | Cc1ccc2c(N)c(C(=O)N[C@H]3CCc4nc(N5CC[C@@]6(C5)OCC[C@H]6N)ccc4C3)sc2n1 [Example 405, 3-amino-N-[(6S)-2-[(4R,5S)-4-amino-1-oxa-7-azaspiro[4.4]nonan-7-yl]-5,6,7,8-tetrahydroquinolin-6-yl]-6-methylthieno[2,3-b]pyridine-2-carboxamide] | 50 to 200
4 | Cc1ccc2c(N)c(C(=O)N[C@H]3CCc4nc(N5CC[C@]6(C5)OCC[C@@H]6N)ccc4C3)sc2n1 [Example 406, 3-amino-N-[(6S)-2-[(4S,5R)-4-amino-1-oxa-7-azaspiro[4.4]nonan-7-yl]-5,6,7,8-tetrahydroquinolin-6-yl]-6-methylthieno[2,3-b]pyridine-2-carboxamide] | 200 to 2000
5 | Cc1ccc2c(N)c(C(=O)N[C@H]3CCc4nc(N5CC[C@@]6(C5)OCC[C@@H]6N)ccc4C3)sc2n1 [Example 407, 3-amino-N-[(6S)-2-[(4S,5S)-4-amino-1-oxa-7-azaspiro[4.4]nonan-7-yl]-5,6,7,8-tetrahydroquinolin-6-yl]-6-methylthieno[2,3-b]pyridine-2-carboxamide] | 50 to 200
6 | Cc1ccc2c(N)c(C(=O)N[C@H]3CCc4nc(N5CC[C@]6(C5)OCC[C@H]6N)ccc4C3)sc2n1 [Example 408, 3-amino-N-[(6S)-2-[(4R,5R)-4-amino-1-oxa-7-azaspiro[4.4]nonan-7-yl]-5,6,7,8-tetrahydroquinolin-6-yl]-6-methylthieno[2,3-b]pyridine-2-carboxamide] | 50 to 200
7 | Cc1ccc2c(N)c(C(=O)N[C@H]3COc4cc(N5CC[C@]6(C5)OCC[C@H]6N)ccc4C3)sc2n1 [Example 410, 3-amino-N-[(3R)-7-[(4R,5R)-4-amino-1-oxa-7-azaspiro[4.4]nonan-7-yl]-3,4-dihydro-2H-1-benzopyran-3-yl]-6-methylthieno[2,3-b]pyridine-2-carboxamide] | 1 to 50
8 | Cc1ccc2c(N)c(C(=O)N[C@H]3COc4cc(N5CC[C@@]6(C5)OCC[C@@H]6N)ccc4C3)sc2n1 [Example 411, 3-amino-N-[(3R)-7-[(4S,5S)-4-amino-1-oxa-7-azaspiro[4.4]nonan-7-yl]-3,4-dihydro-2H-1-benzopyran-3-yl]-6-methylthieno[2,3-b]pyridine-2-carboxamide] | 1 to 50
9 | COC[C@H]1[C@H](N)CCN1c1ccc2c(n1)CC[C@H](NC(=O)c1sc3nc(C)ccc3c1N)C2 [Example 419, 3-amino-N-[(6S)-2-[(2R,3R)-3-amino-2-(methoxymethyl)pyrrolidin-1-yl]-5,6,7,8-tetrahydroquinolin-6-yl]-6-methylthieno[2,3-b]pyridine-2-carboxamide] | 50 to 200
10 | COC[C@@H]1[C@@H](N)CCN1c1ccc2c(n1)CC[C@H](NC(=O)c1sc3nc(C)ccc3c1N)C2 [Example 420, 3-amino-N-[(6S)-2-[(2S,3S)-3-amino-2-(methoxymethyl)pyrrolidin-1-yl]-5,6,7,8-tetrahydroquinolin-6-yl]-6-methylthieno[2,3-b]pyridine-2-carboxamide] | 1 to 50
11 | CCn1ccc2cc(C(=O)N[C@H]3CCc4nc(N5C[C@H](N)[C@@H](C(F)(F)F)C5)ccc4C3)cnc21 [Example 421, N-[(6S)-2-[(3R,4S)-3-amino-4-(trifluoromethyl)pyrrolidin-1-yl]-5,6,7,8-tetrahydroquinolin-6-yl]-1-ethyl-1H-pyrrolo[2,3-b]pyridine-5-carboxamide] | 50 to 200
12 | CCn1ccc2cc(C(=O)N[C@H]3CCc4nc(N5C[C@@H](N)[C@H](C(F)(F)F)C5)ccc4C3)cnc21 [Example 422, N-[(6S)-2-[(3S,4R)-3-amino-4-(trifluoromethyl)pyrrolidin-1-yl]-5,6,7,8-tetrahydroquinolin-6-yl]-1-ethyl-1H-pyrrolo[2,3-b]pyridine-5-carboxamide] | 200 to 2000
13 | Cc1ccc2c(N)c(C(=O)N[C@H]3COc4cc(N5C[C@@H](CF)[C@@H](N)C5)ccc4C3)sc2n1 [Example 423, 3-amino-N-[(3R)-7-[(3R,4R)-3-amino-4-(fluoromethyl)pyrrolidin-1-yl]-3,4-dihydro-2H-1-benzopyran-3-yl]-6-methylthieno[2,3-b]pyridine-2-carboxamide] | 1 to 50
14 | Cc1ccc2c(N)c(C(=O)N[C@H]3COc4cc(N5C[C@@H](N)[C@@H]6OCC[C@@H]65)ccc4C3)sc2n1 [Example 425, N-[(3R)-7-[(3aS,6R,6aS)-6-amino-hexahydro-2H-furo[3,2-b]pyrrol-4-yl]-3,4-dihydro-2H-1-benzopyran-3-yl]-3-amino-6-methylthieno[2,3-b]pyridine-2-carboxamide] | 1 to 50
15 | Cc1ccc2c(N)c(C(=O)N[C@H]3COc4cc(N5C[C@H](N)[C@H]6OCC[C@H]65)ccc4C3)sc2n1 [Example 426, N-[(3R)-7-[(3aR,6S,6aR)-6-amino-hexahydro-2H-furo[3,2-b]pyrrol-4-yl]-3,4-dihydro-2H-1-benzopyran-3-yl]-3-amino-6-methylthieno[2,3-b]pyridine-2-carboxamide] | 1 to 50
16 | CO[C@]1(C)CN(c2ccc3c(n2)CC[C@H](NC(=O)c2sc4nc(C)ccc4c2N)C3)C[C@@H]1N [Example 427, 3-amino-N-[(6S)-2-[(3R,4S)-4-amino-3-methoxy-3-methylpyrrolidin-1-yl]-5,6,7,8-tetrahydroquinolin-6-yl]-6-methylthieno[2,3-b]pyridine-2-carboxamide] | 50 to 200
17 | CO[C@@]1(C)CN(c2ccc3c(n2)CC[C@H](NC(=O)c2sc4nc(C)ccc4c2N)C3)C[C@H]1N [Example 428, 3-amino-N-[(6S)-2-[(3S,4R)-4-amino-3-methoxy-3-methylpyrrolidin-1-yl]-5,6,7,8-tetrahydroquinolin-6-yl]-6-methylthieno[2,3-b]pyridine-2-carboxamide] | 50 to 200
18 | Cc1ccc2c(N)c(C(=O)N[C@H]3CCc4nc(N5C6CC(N)CC5CS(=O)(=O)C6)ccc4C3)sc2n1 (stereo partly drawn) [Example 429, 3-amino-N-[(6S)-2-{7-amino-3,3-dioxo-3λ^6-thia-9-azabicyclo[3.3.1]nonan-9-yl}-5,6,7,8-tetrahydroquinolin-6-yl]-6-methylthieno[2,3-b]pyridine-2-carboxamide] | 1 to 50
19 | Cc1ccc2c(N)c(C(=O)N[C@H]3CCc4nc(N5C[C@H](N)[C@]6(CCOC6)C5)ccc4C3)sc2n1 [Example 430, 3-amino-N-[(6S)-2-[(5S,9R)-9-amino-2-oxa-7-azaspiro[4.4]nonan-7-yl]-5,6,7,8-tetrahydroquinolin-6-yl]-6-methylthieno[2,3-b]pyridine-2-carboxamide] | 50 to 200
20 | Cc1ccc2c(N)c(C(=O)N[C@H]3CCc4nc(N5C[C@@H](N)[C@@]6(CCOC6)C5)ccc4C3)sc2n1 [Example 431, 3-amino-N-[(6S)-2-[(5R,9S)-9-amino-2-oxa-7-azaspiro[4.4]nonan-7-yl]-5,6,7,8-tetrahydroquinolin-6-yl]-6-methylthieno[2,3-b]pyridine-2-carboxamide] | 50 to 200
21 | Cc1ccc2c(N)c(C(=O)N[C@H]3COc4cc(N5C[C@@H](N)[C@]6(CCOC6)C5)ccc4C3)sc2n1 [Example 432, 3-amino-N-[(3R)-7-[(5S,9S)-9-amino-2-oxa-7-azaspiro[4.4]nonan-7-yl]-3,4-dihydro-2H-1-benzopyran-3-yl]-6-methylthieno[2,3-b]pyridine-2-carboxamide] | 1 to 50
22 | Cc1ccc2c(N)c(C(=O)N[C@H]3COc4cc(N5C[C@@H](N)[C@@]6(CCOC6)C5)ccc4C3)sc2n1 [Example 433, 3-amino-N-[(3R)-7-[(5R,9S)-9-amino-2-oxa-7-azaspiro[4.4]nonan-7-yl]-3,4-dihydro-2H-1-benzopyran-3-yl]-6-methylthieno[2,3-b]pyridine-2-carboxamide] | 1 to 50
